Molecular target: human NaV 1.7 (Homo sapiens, UniProt Q15858)
Experiment: E-VIPR optical membrane potential assay with electrical stimulation
Type: cell-based
Conditions: sodium channel inhibition; read-out: Binned Activity Data (IC50)
Method in brief: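 Membrane-potential read-out: background-subtracted 460 nm/580 nm ratio during a 9 s current-controlled stimulus, 400 Hz scan. Before stimulation, NaV1.7-HEK cells carried coumarin/oxonol dye and compound (final DMSO 0.625%) for 20–35 min at room temperature; tetracaine 125 μM served as positive control.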

Chain of human NaV 1.7 (Q15858 whole entry): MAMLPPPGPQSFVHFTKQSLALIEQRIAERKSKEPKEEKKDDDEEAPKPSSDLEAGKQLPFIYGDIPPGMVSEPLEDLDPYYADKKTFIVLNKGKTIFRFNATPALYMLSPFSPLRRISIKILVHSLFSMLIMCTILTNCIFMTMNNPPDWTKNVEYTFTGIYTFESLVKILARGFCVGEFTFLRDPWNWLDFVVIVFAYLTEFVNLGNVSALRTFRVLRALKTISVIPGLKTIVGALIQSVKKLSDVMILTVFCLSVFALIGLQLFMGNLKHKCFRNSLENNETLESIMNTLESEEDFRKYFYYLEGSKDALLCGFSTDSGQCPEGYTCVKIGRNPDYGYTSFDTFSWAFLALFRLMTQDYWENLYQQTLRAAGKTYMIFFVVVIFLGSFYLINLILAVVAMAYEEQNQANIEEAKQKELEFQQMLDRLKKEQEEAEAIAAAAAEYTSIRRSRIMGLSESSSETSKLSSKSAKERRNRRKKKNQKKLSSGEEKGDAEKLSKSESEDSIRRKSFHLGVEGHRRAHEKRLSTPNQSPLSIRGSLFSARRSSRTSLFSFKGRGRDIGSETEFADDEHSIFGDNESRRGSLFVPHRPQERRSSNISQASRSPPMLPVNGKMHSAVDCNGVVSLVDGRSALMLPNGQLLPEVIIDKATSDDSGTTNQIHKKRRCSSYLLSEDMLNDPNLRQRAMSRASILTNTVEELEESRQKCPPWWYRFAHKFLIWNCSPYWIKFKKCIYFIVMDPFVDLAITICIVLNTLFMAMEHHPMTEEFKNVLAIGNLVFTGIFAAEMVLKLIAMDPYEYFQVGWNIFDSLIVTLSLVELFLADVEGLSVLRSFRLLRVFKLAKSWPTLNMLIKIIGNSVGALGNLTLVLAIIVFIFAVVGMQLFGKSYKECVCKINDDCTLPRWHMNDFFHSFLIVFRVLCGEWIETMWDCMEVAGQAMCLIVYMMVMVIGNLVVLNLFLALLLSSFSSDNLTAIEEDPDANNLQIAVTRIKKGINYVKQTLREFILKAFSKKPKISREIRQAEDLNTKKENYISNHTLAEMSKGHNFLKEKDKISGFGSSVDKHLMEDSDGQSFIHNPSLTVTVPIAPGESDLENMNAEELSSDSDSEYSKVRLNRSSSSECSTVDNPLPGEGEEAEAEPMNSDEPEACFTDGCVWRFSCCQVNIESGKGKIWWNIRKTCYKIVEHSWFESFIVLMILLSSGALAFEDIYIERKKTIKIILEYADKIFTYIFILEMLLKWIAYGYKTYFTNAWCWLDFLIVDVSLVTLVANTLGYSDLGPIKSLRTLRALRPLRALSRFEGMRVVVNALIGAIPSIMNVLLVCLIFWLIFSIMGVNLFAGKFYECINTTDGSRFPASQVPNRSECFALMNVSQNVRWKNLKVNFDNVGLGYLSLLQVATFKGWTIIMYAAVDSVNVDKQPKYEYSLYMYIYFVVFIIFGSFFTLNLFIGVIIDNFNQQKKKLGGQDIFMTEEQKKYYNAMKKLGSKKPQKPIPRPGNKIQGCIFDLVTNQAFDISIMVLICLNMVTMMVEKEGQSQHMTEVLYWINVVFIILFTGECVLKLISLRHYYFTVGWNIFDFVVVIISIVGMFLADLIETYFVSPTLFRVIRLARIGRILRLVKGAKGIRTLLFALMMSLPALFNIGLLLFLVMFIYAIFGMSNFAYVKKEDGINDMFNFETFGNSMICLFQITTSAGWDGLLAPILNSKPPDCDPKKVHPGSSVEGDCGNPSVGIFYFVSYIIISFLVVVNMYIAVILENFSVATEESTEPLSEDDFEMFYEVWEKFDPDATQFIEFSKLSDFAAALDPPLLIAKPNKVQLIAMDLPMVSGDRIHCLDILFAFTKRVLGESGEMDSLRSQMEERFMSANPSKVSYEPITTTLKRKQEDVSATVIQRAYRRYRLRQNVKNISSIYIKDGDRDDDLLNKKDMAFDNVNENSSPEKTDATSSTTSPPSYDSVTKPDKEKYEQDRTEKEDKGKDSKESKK

Compound: O=C(c1ccc(OS(=O)(=O)C(F)(F)F)cc1)N1CCC2(CC1)Oc1ccccc1-n1c(C(F)(F)F)ccc12 [Compound 891]
- IC50: ≤ 2000 nM
